The values that follow come from US9994571B2, “10-substituted morphinan hydantoins” (Purdue Pharma L.P., priority 2013, dated 2018).

The target of assay [1] is T1, μ-opioid receptor (Homo sapiens (Human), UniProt P35372). Nature of the assay: μ-opioid receptor radioligand dose-displacement binding assay ([3H]-diprenorphine). The conditions noted are these: binding assays using HEK-293 cells; read-out: Opioid Receptor Ki (nM) μ. As to the method: Radioligand dose-displacement binding assays for μ-opioid receptors used 0.3 nM [^3H]-diprenorphine (Perkin Elmer, Shelton, Conn.), with […] membrane protein/well in a final volume of 500 μl binding buffer (10 mM MgCl2, 1 mM EDTA, 5% DMSO, 50 mM HEPES, pH 7.4). Reactions were carried out in the absence or presence of increasing concentrations of unlabeled naloxone. All reactions were conducted in 96-deep well polypropylene plates for 2 hours at room temperature. Binding reactions were terminated by rapid filtration onto 96-well Unifilter GF/C filter plates (Perkin Elmer, Shelton, Conn.), presoaked in 0.5% polyethylenimine using a 96-well tissue harvester (Perkin Elmer, Shelton, Conn.) followed by performing three filtration washes with 500 μl of ice-cold binding buffer. Filter plates were subsequently dried at 50° C. for 2-3 hours. BetaScint scintillation cocktail (Perkin Elmer, Shelton, Conn.) was added (50 μl/well), and plates were counted using a Packard Top-Count for 1 min/well. The data were analyzed using the one-site competition curve fitting functions in GraphPad PRISM™ v. 3.0 or higher (San Diego, Calif.), or an in-house function for one-site competition curve-fitting.
(§1) In TABLE 1, binding affinity of certain Compounds of the Invention to the μ- and κ-opioid receptors was determined as described above for binding assays using HEK-293 cells.

Assay [2] addresses T2, κ opioid receptor (Homo sapiens (Human), UniProt P41145). Nature of the assay: κ-opioid receptor radioligand dose-displacement binding assay ([3H]-U69,593). The conditions noted are these: binding assays using HEK-293 cells; read-out: Opioid Receptor Ki (nM) κ. The protocol: Membranes from HEK-293 cells, CHO or U-2 OS cells expressing the recombinant human κ opioid receptor (κ) were prepared by lysing cells in ice cold hypotonic buffer (2.5 mM MgCl2, 50 mM HEPES, pH 7.4) (10 mL/10 cm dish) followed by homogenization with a tissue grinder/Teflon pestle. Membranes from a cell line naturally expressing kappa opioid receptor can also be used. Membranes were collected by centrifugation at 30,000×g for 15 min at 4° C. and pellets were resuspended in hypotonic buffer to a final concentration of 1-3 mg/mL. Protein concentrations were determined using the BioRad protein assay reagent with bovine serum albumen as standard. Aliquots of K receptor membranes were stored at −80° C.
Radioligand dose displacement assays used 0.4 nM [^3H]-U69,593 (GE Healthcare, Piscataway, N.J.; 40 Ci/mmole) with 15 μg membrane protein (recombinant κ opioid receptor expressed in HEK 293 cells; in-house prep) in a final volume of 200 μl binding buffer (5% DMSO, 50 mM Trizma base, pH 7.4). Non-specific binding was determined in the presence of 10 μM unlabeled naloxone or U69,593. All reactions were performed in 96-well polypropylene plates for 1 hour at a temperature of about 25° C. Binding reactions were terminated by rapid filtration onto 96-well Unifilter GF/C filter plates (Perkin Elmer, Shelton, Conn.) presoaked in 0.5% polyethylenimine (Sigma). Harvesting was performed using a 96-well tissue harvester (Perkin Elmer, Shelton, Conn.) followed by five filtration washes with 200 μl ice-cold binding buffer. Filter plates were subsequently dried at 50° C. for 1-2 hours. Fifty μl/well scintillation cocktail (Perkin Elmer, Shelton, Conn.) was added and plates were counted in a Packard Top-Count for 1 min/well.
as §1

Assay [3] deals with T1, μ-opioid receptor. In words: μ-opioid receptor [35S]GTPγS functional assay. The class given is biochemical. The protocol:
[^35S]GTPγS functional assays were conducted using freshly thawed μ-receptor membranes prepared in-house from a cell line expressing recombinant μ opioid receptor in a HEK-293, CHO or U-2 OS cell background, or purchased from a commercial source (Perkin Elmer, Shelton, Conn.; or DiscovRx, Fremont, Calif.). Assay reactions were prepared by sequentially adding the following reagents to binding buffer (100 mM NaCl, 10 mM MgCl2, 20 mM HEPES, pH 7.4) on ice (final concentrations indicated): membrane protein (0.026 mg/mL), saponin ([…]), GDP ([…]) and [^35S]GTPγS (0.20 nM; Perkin Elmer, Shelton, Conn.). The prepared membrane solution (190 l/well) was transferred to 96-shallow well polypropylene plates containing 10 μl of 20× concentrated stock solutions of the agonist [D-Ala^2, N-methyl-Phe^4 Gly-ol^5]-enkephalin (DAMGO) prepared in dimethyl sulfoxide (DMSO). Plates were incubated for 30 min at about 25° C. with shaking. Reactions were terminated by rapid filtration onto 96-well Unifilter GF/B filter plates (Perkin Elmer, Shelton, Conn.) using a 96-well tissue harvester (Perkin Elmer, Shelton, Conn.) followed by three filtration washes with 200 μl of ice-cold wash buffer (10 mM NaH2PO4, 10 mM Na2HPO4, pH 7.4). Filter plates were subsequently dried at 50° C. for 2-3 hours. BetaScint scintillation cocktail (Perkin Elmer, Shelton, Conn.) was added (50 μl/well) and plates were counted using a Packard Top-Count for 1 min/well. Data were analyzed using the sigmoidal dose-response curve fitting functions in GraphPad PRISM v. 3.0, or an in-house function for non-linear, sigmoidal dose-response curve-fitting.
μ GTP EC50 is the concentration of a compound providing 50% of the maximal response for the compound at a μ-opioid receptor.
μ GTP Emax (%) is the maximal effect elicited by a compound relative to the effect elicited by DAMGO, a standard μ agonist. Generally, the μ GTP Emax (%) value measures the efficacy of a compound to treat or prevent pain or other Conditions.
(§2) In TABLE 2, activity response of certain Compounds of the Invention to the μ- and κ-opioid receptors was determined as described above for functional assays using U-2 OS cells.
In general terms: GTPγS is a poorly hydrolysed GTP analogue; its binding reports G protein activation.

The target of assay [4] is T2, κ opioid receptor. In words: κ-opioid receptor [35S]GTPγS functional assay. It is filed as biochemical. As to the method:
Functional [^35S]GTPγS binding assays were conducted as follows. κ opioid receptor membrane solution was prepared by sequentially adding final concentrations of 0.026 μg/μl κ membrane protein (in-house), 10 μg/mL saponin, 3 μM GDP and 0.20 nM [^35S]GTPγS to binding buffer (100 mM NaCl, 10 mM MgCl2, 20 mM HEPES, pH 7.4) on ice. The prepared membrane solution (190 μl/well) was transferred to 96-shallow well polypropylene plates containing 10 μl of 20× concentrated stock solutions of agonist prepared in DMSO. Plates were incubated for 30 min at a temperature of about 25° C. with shaking. Reactions were terminated by rapid filtration onto 96-well Unifilter GF/B filter plates (Perkin Elmer, Shelton, Conn.) using a 96-well tissue harvester (Packard) and followed by three filtration washes with 200 μl ice-cold binding buffer (10 mM NaH2PO4, 10 mM Na2HPO4, pH 7.4). Filter plates were subsequently dried at 50° C. for 2-3 hours. Fifty μl/well scintillation cocktail (Perkin Elmer, Shelton, Conn.) was added and plates were counted in a Packard Top-Count for 1 min/well.
κ GTP EC50 is the concentration of a compound providing 50% of the maximal response for the compound at a K receptor.
κ GTP Emax (%) is the maximal effect elicited by a compound relative to the effect elicited by U69,593.
as §2

[5] abbreviates: functional assays using U-2 OS cells, relative to the effect elicited by DAMGO.
Setting [6] is: functional assays using U-2 OS cells, relative to the effect elicited by U69,593.

Where two headings read alike, the source gives them in different places.

What is called Ki is a dissociation constant, usually derived from enzyme kinetics or from competition with a known ligand. In general, EC50 refers to the concentration needed to bring the measured effect to its halfway point. The Emax is the size of the effect at its maximum, as opposed to the concentration needed. Turning to `O=C1NC(=O)[C@@]2(CC[C@@]3(O)[C@H]4C(=O)c5ccc(O)cc5[C@@]3(CCN4CC3CC3)C2)N1` [Compound 13, (4bR,4′S,8aS,9S)-11-(cyclopropylmethyl)-3,8a-dihydroxy-7,8,8a,9-tetrahydrospiro[9,4b-(epiminoethano)phenanthrene-6,4′-imidazolidine]-2′,5′,10(5H)-trione], the Ki amounted to 472 ± 40.8 nM at μ-opioid receptor [1] and 12.2 ± 0.61 nM at κ opioid receptor [2]. Also, the EC50 at μ-opioid receptor [3] was 37.5 ± 6.18 nM; on κ opioid receptor [4], 8.79 ± 1.26 nM. Besides, the Emax on μ-opioid receptor [3] (setting [5]) was determined as 61.3 ± 5.78%; on κ opioid receptor [4] (setting [6]), 106 ± 2.52%.
Regarding `CN1CC[C@]23C[C@]4(CC[C@@]2(O)[C@H]1[C@H](O)c1ccc(O)cc13)NC(=O)NC4=O` [Compound 17, (4bR,4′S,8aS,9R,10R)-3,8a,10-trihydroxy-11-methyl-5,7,8,8a,9,10-hexahydrospiro[9,4b-(epiminoethano)phenanthrene-6,4′-imidazolidine]-2′,5′-dione], the values for the EC50 at μ-opioid receptor [3] and on κ opioid receptor [4] were 116 ± 23 nM and 5780 ± 1100 nM, respectively. Further, the Emax stood at 98.8 ± 0.97% on μ-opioid receptor [3] (setting [5]) and 107 ± 1.53% at κ opioid receptor [4] (setting [6]).
In the case of “(4bR,4′S,8aS,9S,10R)-11-(cyclopropylmethyl)-10-fluoro-8a-hydroxy-3-methoxy-5,7,8,8a,9,10-tetrahydrospiro [9,4b-(epiminoethano)phenanthrene-6,4′-imidazolidine]-2′,5′-dione [Compound 18]”, the EC50 is 1550 ± 184 nM on μ-opioid receptor [3] (functional assays using U-2 OS cells, read-out: Opioid Receptor μ EC50) and 1480 ± 125 nM at κ opioid receptor [4] (functional assays using U-2 OS cells, read-out: Opioid Receptor κ EC50). The “Opioid Receptor μ Emax (%)” value on μ-opioid receptor [3] (setting [5]) is given as 14.7 ± 0.33%. Also, the “Opioid Receptor κ Emax (%)” value at κ opioid receptor [4] (setting [6]) is reported as 81.7 ± 0.88%.
